The conditions of data set [1]: topical nepafenac, Cmax, cited from earlier work.
Data set [2] can be described thus: Dexamethasone periocular DEPOT (sub-Tenon injection), retina-choroid concentrations, literature comparison. In kind it is in vivo. As to conditions: dexamethasone sub-Tenon DEPOT versus SD-8381 DEPOT. Here is the method:
For comparison, the concentrations in the retina-choroid for a DEPOT of a similar lipophilic small molecule, dexamethasone, when placed very close to the retina (sub-Tenon injection) were 0.31 and 0.93 μM [Huang Z, Yang W, Zong Y, Qiu S, Chen X, Sun X, Zhou Y, Xie Z, and Gao Q. A study of the dexamethasone sodium phosphate release properties from a periocular capsular drug delivery system. Drug Delivery 2016:23; 839-847]. […] Also, these dexamethasone data are for a situation where drug delivery has been optimized.

The conditions of data set [3]: DEPOT sub-Tenon's sac, steady-state, cited from earlier work.
Data set [4] in a line: Rabbit study: subconjunctival DEPOT of the ethyl ester of SD-8381 in sesame oil, drug concentration in ocular tissues and plasma by LC-MS. In kind it is in vivo, DB rabbits. The method, then:
All reagents were obtained from Sigma-Aldrich with the exception that sesame oil was obtained from Sawall, 2965 Oakland Dr, Kalamazoo, Mich. The ethyl ester of SD-8381 was formulated in sesame oil as a saturated solution at room temperature. Saturation was assured by warming under water warm to the touch for 10 minutes and noting that upon returning to room temperature the powder was in equilibrium with what was apparently a crystalline form of the drug in that the small amount of remaining drug was now transparent (for example, the compound had clearly dissolved and crystallized out of solution). The formulation was checked for topical instillation irritancy. Two male DB rabbits were sedated with isoflurane vapors to effect. Eyes were anesthetized with topical proparacaine, the area treated with ophthalmic betadine and rinsed with sterile saline. The test article was injected (0.05 mL) as a subconjunctival DEPOT to two male DB rabbits, OU using a 29 g needle.
The rabbits were sacrificed at a 6-days. Samples collected were (bilateral) aqueous humor, iris plus ciliary body, cornea, conjunctiva, sclera, choroid, retina, lens, vitreous humor and plasma which were placed in tared vials and stored at −20° C. prior to analysis. Care was taken to not cross contaminate fields by dissecting high concentration tissues as separately as possible from other tissues.
The free acid of SD-8381 was formed enzymatically using ethyl 6,8-dichloro-2-(trifluoromethyl)-2H-chromene-3-carboxylate and porcine esterase (all reagents and chemicals are from Sigma-Aldrich). The reaction was initiated by adding 5 mg of compound in methanol to 8 mg of esterase in 250 μL of 50 mM potassium phosphate pH 8 buffer. The reaction proceeded at 37° C. and was complete after 3 hours. Conversion of the […] to the free acid was monitored using HPLC-UV with 254 nm detection and confirmed by flow injection analysis using a Waters Quattro Micro mass spectrometer in negative ion mode at unit resolution. SD-8381 free acid was purified by HPLC fraction collection using a 4.6×250 mm Agilent Eclipse XDB-C18 column using 0.1% formic acid/H2O/acetonitrile mobiles phases. Fractions containing the free acid were dried in a weighed tube using a SpeedVac concentrator.
Free acid SD-8381 was reconstituted in methanol to establish w/v concentration standards for LC-MS analysis. Analytical standards were prepares using EDTA mouse plasma from BioVT. A dilution series of free acid SD-8381 in methanol were spiked into mouse plasma and each concentration was combined with 3 volumes of methanol containing 1 μM diclofenac as a surrogate internal standard as no stable-isotope labeled internal standard (SIL-IS) of SD-8381 is currently available. Standards and plasma blanks were vortex mixed and centrifuged at 13K×g for 5 minutes. Supernatant was transferred to glass insert vials and immediately analyzed by LC-MS analysis. Tissue samples were homogenized using a GE Healthcare sample grinding kit #80-6483-37 and 1 volume of DPBS containing 50% methanol. Proteins were precipitated using 2 additional volumes of methanol and vortex mixing for 5 minutes. Samples were centrifuged at 13K×g for 5 minutes. Supernatant was removed and dried in a SpeedVac concentrator under medium heat. Sample was reconstituted using methanol containing 1 uM Diclofenac. Samples were analyzed using a Waters nanoAcquity UPLC in-line with a high-resolution Waters Synapt G2-S mass spectrometer via an electrospray ion source. UPLC separation of used performed using a 0.375 mm×10 cm Waters XBridge C18 3.5 u column and a flow rate of 10 μL per minute. Mobile phases were 0.1% formic acid in water as mobile phase A and 0.1% formic acid in acetonitrile as mobile phase B. Gradient elution was accomplished with 1% B initial sample loading with ramping to 95% B at 3 minutes, holding at 95% B for 5 minutes, and returning to 1% B at 8.1 minutes. Total run time was 12 minutes and 5 μL of sample was injected per analysis. […]

The nature of data set [5]: Plasma protein binding. Format: in vitro ADME.
The mark [6] stands for this setting: DEPOT, steady-state, 6 days, high value of the same subject dropped.
The mark [7] stands for this setting: SD-8381 free acid measured, subconjunctival DEPOT 0.05 mL OU of ethyl ester in sesame oil, rabbits sacrificed at 6 days.

Values joined by “and” are separate entries in the source; they are usually repeats but may differ in a detail not shown here. Equal values may be shown once. Read-outs that look alike come from different tables or passages of the source.

Regarding `NC(=O)Cc1cccc(C(=O)c2ccccc2)c1N` [Nepafenac, 2-amino-3-benzoylbenzeneacetamide], in data set [1], the Anterior choroid concentration result is given as “(0.71) μM”, the Anterior retina concentration entry is given as “(0.11) μM”, the Posterior choroid concentration is 0.055 µM and the Posterior retina concentration is 0.0027 µM. In data set [1] (listed as nepafenac), the Anterior choroid concentration is 0.714 µM, the Anterior retina concentration was 0.110 µM, the Posterior choroid concentration is 0.0551 µM and the Posterior retina concentration was 0.00272 µM.
In the case of `C[C@@H]1C[C@H]2[C@@H]3CCC4=CC(=O)C=C[C@]4(C)[C@@]3(F)[C@@H](O)C[C@]2(C)[C@@]1(O)C(=O)CO` [Dexamethasone, dexamethasone], the “Retina-choroid concentration compared with SD-8381” value in data set [2] is on record as “almost two orders of magnitude less”. Also, the Choroid concentration in data set [3] is 0.92 µM; in data set [3] (listed as dexamethasone), 0.93 µM. Also, the Retina concentration in data set [3] is 0.31 µM.
With `CCOC(=O)C1=Cc2cc(Cl)cc(Cl)c2OC1C(F)(F)F` (stereo not drawn) [ethyl ester of SD-8381, ethyl 6,8-dichloro-2-(trifluoromethyl)-2H-chromene-3-carboxylate], in data set [4] (subconjunctival DEPOT 0.05 mL OU, saturated solution in sesame oil, two male DB rabbits), the “Adverse events (excessive scratching, redness, other signs of irritation and pain)” value is given as “No apparent adverse events”.
As for `Nc1c(CC(=O)O)cccc1C(=O)c1ccccc1` [Amfenac, 2-amino-3-benzoylbenzeneacetic acid], in data set [1], the Anterior choroid concentration entry is “(0.47) μM”, the Anterior retina concentration result is listed as “(0.011) μM”, the Posterior choroid concentration was 0.042 µM and the Posterior retina concentration was 0.00077 µM. Besides, in data set [1] (listed as amfenac), the Anterior choroid concentration was 0.468 µM, the Anterior retina concentration was 0.011 µM, the Posterior choroid concentration is 0.0418 µM and the Posterior retina concentration is 0.000765 µM.
Take `O=C(O)C1=Cc2cc(Cl)cc(Cl)c2OC1C(F)(F)F` (stereo not drawn) [SD-8381, 6.8-Dichloro-2-trifluoromethyl-2H-1-benzopyran-3-carboxylic acid]: in data set [4] (DEPOT, steady-state, 6 days), the “Choroid concentration, mean (n = 4)” value was 96 (n = 4) μM and the “Retina concentration, mean (n = 4)” value is 13 (n = 4) μM. For the same compound, in data set [4] (setting [6]), the “Choroid concentration, average with high value dropped (n = 3)” value is 20.9 μM and 21 (n = 3)* μM; the “Retina concentration, average with high value dropped (n = 3)” value is 5.17 μM and 5.2 (n = 3)* μM. Further, the “Retina-choroid concentration at steady-state compared with nepafenac following topical administration” value in data set [4] (SD-8381 DEPOT versus literature nepafenac) is on record as “approximately two orders of magnitude higher”. Moreover, in data set [4] (setting [7]), the “Choroid concentration, individual values” is 322 µM and 9.78 µM and 2.43 µM and 50.4 µM; the “Retina concentration, individual values” is 36.8 µM and 2.01 µM and 9.14 µM and 4.37 µM. Further, in data set [4] (plasma versus ocular tissues), the “Plasma concentration relative to ocular tissues (fold less)” value is on record as 10^2-10^4. Further, in data set [5], the “Binding to plasma proteins” value is listed as “highly bound to plasma proteins”.

Source of the values: patent US20200237715A1, “COX-2 Inhibitors for the Treatment of Ocular Disease” (priority 2019, published 2020).
